# Columns and labels:
# Experiment in all cases: Cell viability assay, CellTiter-Glo (Example 21)
# Format in all cases: cell-based, human
# [1] = test system: PC-3 (prostate, adenocarcinoma) cells; details: 72 h treatment
# Description: (§1) Effect of the selected compounds on cancer cell viability was measured via CellTiter-Glo® luminescent cell viability assay (Promega, Madison, WI, USA) according to the manufacturer's instructions. Cells were plated onto a flat-bottomed, white 96 well plate (BRANDplates®, cat. no.: 781965). Density of the seeded cells was optimized based on their size and growth rate, as the follows: Panc-1:750 cells/well; DU 145, PC-3, Capan-1, MIA PaCa-2, SCC-25, FaDu and EBC-1: 1000 cells/well; LNCaP, Detroit 562, MDA-MB-231 and MDA-MB-453 1500 cells/well. […] After the treatment, the luminescence signal was recorded using a microplate reader (BioTek Synergy 2 Multi-Mode Reader, BioTek, Winooski, VT, USA). Dose-response curves were generated by GraphPad Prism 8.4.2. software using a non-linear regression model (variable slope, four parameters), (see FIGS. 12-51).
# [2] = test system: Capan-1 (pancreas, adenocarcinoma) cells; details: 72 h treatment
# Description: as §1
# [3] = test system: EBC-1 (lung, squamous cell carcinoma) cells; details: 72 h treatment
# Description: as §1
# [4] = test system: DU 145 (prostate, carcinoma) cells; details: 72 h
# Description: as §1
# [5] = test system: FaDu (pharynx, squamous cell carcinoma) cells; details: 72 h treatment
# Description: as §1
# [6] = test system: MDA-MB-453 (breast, carcinoma) cells; details: 72 h treatment
# Description: as §1
# [7] = test system: MIA PaCa-2 (pancreas, carcinoma) cells; details: 72 h treatment
# Description: as §1
# [8] = test system: MDA-MB-231 (breast, adenocarcinoma) cells; details: 72 h treatment
# Description: as §1
# [9] = test system: Detroit 562 (pharynx, carcinoma) cells; details: 72 h treatment
# Description: as §1
# [10] = test system: LNCaP (prostate, carcinoma) cells; details: 72 h
# Description: as §1
# [11] = test system: Panc-1 (pancreas, carcinoma) cells; details: 72 h treatment
# Description: as §1
# [12] = test system: SCC-25 (tongue, squamous cell carcinoma) cells; details: 72 h treatment
# Description: as §1
smiles,measurement,setting,value
"O=C1C2=C(CCN(Cc3cc(F)cc(F)c3)C2)N2CCN=C2N1Cc1ccc(Cl)cc1 [I/124, 4-(4-Chlorobenzyl)-7-(3,5-difluorobenzyl)-2,4,6,7,8,9-hexahydroimidazo[1,2-a]pyrido[3,4-e]pyrimidin-5(1H)-one]","PC-3 (prostate, adenocarcinoma) cell viability (% of control)",[1]; 3.7 nM,46.9 ± 4.2 % of control
same,"PC-3 (prostate, adenocarcinoma) cell viability (% of control)",[1]; 11.1 nM,33.9 ± 3.3 % of control
same,"PC-3 (prostate, adenocarcinoma) cell viability (% of control)",[1]; 100 nM,32.8 ± 3.2 % of control
same,"PC-3 (prostate, adenocarcinoma) cell viability (% of control)",[1]; 300 nM,32.7 ± 14.4 % of control
same,"Capan-1 (pancreas, adenocarcinoma) cell viability (% of control)",[2]; 3.7 nM,88.5 ± 1.8 % of control
same,"Capan-1 (pancreas, adenocarcinoma) cell viability (% of control)",[2]; 11.1 nM,35.3 ± 3.1 % of control
same,"Capan-1 (pancreas, adenocarcinoma) cell viability (% of control)",[2]; 100 nM,33.6 ± 1.1 % of control
same,"Capan-1 (pancreas, adenocarcinoma) cell viability (% of control)",[2]; 300 nM,34.6 ± 2.4 % of control
same,"EBC-1 (lung, squamous cell carcinoma) cell viability (% of control)",[3]; 3.7 nM,70.9 ± 8.3 % of control
same,"EBC-1 (lung, squamous cell carcinoma) cell viability (% of control)",[3]; 11.1 nM,25.3 ± 0.7 % of control
same,"EBC-1 (lung, squamous cell carcinoma) cell viability (% of control)",[3]; 100 nM,22.4 ± 0.5 % of control
same,"EBC-1 (lung, squamous cell carcinoma) cell viability (% of control)",[3]; 300 nM,23.5 ± 1.3 % of control
same,DU 145 cell viability,[4]; 3.7 nM,10.0 ± 1.4 % of control
same,DU 145 cell viability,[4]; 11.1 nM,7.0 ± 1.1 % of control
same,DU 145 cell viability,[4]; 100 nM,8.0 ± 1.0 % of control
same,DU 145 cell viability,[4]; 300 nM,7.7 ± 1.8 % of control
same,"FaDu (pharynx, squamous cell carcinoma) cell viability (% of control)",[5]; 3.7 nM,45.6 ± 20.7 % of control
same,"FaDu (pharynx, squamous cell carcinoma) cell viability (% of control)",[5]; 11.1 nM,26.1 ± 6.2 % of control
same,"FaDu (pharynx, squamous cell carcinoma) cell viability (% of control)",[5]; 100 nM,24.5 ± 4.6 % of control
same,"FaDu (pharynx, squamous cell carcinoma) cell viability (% of control)",[5]; 300 nM,24.7 ± 5.0 % of control
same,"MDA-MB-453 (breast, carcinoma) cell viability (% of control)",[6]; 3.7 nM,37.9 ± 3.2 % of control
same,"MDA-MB-453 (breast, carcinoma) cell viability (% of control)",[6]; 11.1 nM,33.5 ± 1.8 % of control
same,"MDA-MB-453 (breast, carcinoma) cell viability (% of control)",[6]; 100 nM,31.2 ± 2.2 % of control
same,"MDA-MB-453 (breast, carcinoma) cell viability (% of control)",[6]; 300 nM,30.9 ± 1.4 % of control
same,"MIA PaCa-2 (pancreas, carcinoma) cell viability (% of control)",[7]; 3.7 nM,33.5 ± 12.1 % of control
same,"MIA PaCa-2 (pancreas, carcinoma) cell viability (% of control)",[7]; 11.1 nM,18.9 ± 7.1 % of control
same,"MIA PaCa-2 (pancreas, carcinoma) cell viability (% of control)",[7]; 100 nM,18.7 ± 7.1 % of control
same,"MIA PaCa-2 (pancreas, carcinoma) cell viability (% of control)",[7]; 300 nM,18.0 ± 7.3 % of control
same,"MDA-MB-231 (breast, adenocarcinoma) cell viability (% of control)",[8]; 3.7 nM,82.4 ± 7.2 % of control
same,"MDA-MB-231 (breast, adenocarcinoma) cell viability (% of control)",[8]; 11.1 nM,59.4 ± 4.5 % of control
same,"MDA-MB-231 (breast, adenocarcinoma) cell viability (% of control)",[8]; 100 nM,55.9 ± 5.3 % of control
same,"MDA-MB-231 (breast, adenocarcinoma) cell viability (% of control)",[8]; 300 nM,54.2 ± 2.4 % of control
same,"Detroit 562 (pharynx, carcinoma) cell viability (% of control)",[9]; 3.7 nM,29.4 ± 4.9 % of control
same,"Detroit 562 (pharynx, carcinoma) cell viability (% of control)",[9]; 11.1 nM,27.8 ± 3.6 % of control
same,"Detroit 562 (pharynx, carcinoma) cell viability (% of control)",[9]; 100 nM,28.3 ± 3.6 % of control
same,"Detroit 562 (pharynx, carcinoma) cell viability (% of control)",[9]; 300 nM,31.5 ± 3.7 % of control
same,LNCaP cell viability,[10]; 3.7 nM,20.8 ± 2.0 % of control
same,LNCaP cell viability,[10]; 11.1 nM,13.3 ± 1.6 % of control
same,LNCaP cell viability,[10]; 100 nM,12.7 ± 0.8 % of control
same,LNCaP cell viability,[10]; 300 nM,13.0 ± 0.7 % of control
same,"Panc-1 (pancreas, carcinoma) cell viability (% of control)",[11]; 3.7 nM,99.7 ± 3.0 % of control
same,"Panc-1 (pancreas, carcinoma) cell viability (% of control)",[11]; 11.1 nM,56.9 ± 0.2 % of control
same,"Panc-1 (pancreas, carcinoma) cell viability (% of control)",[11]; 100 nM,50.9 ± 0.3 % of control
same,"Panc-1 (pancreas, carcinoma) cell viability (% of control)",[11]; 300 nM,51.2 ± 0.4 % of control
same,"SCC-25 (tongue, squamous cell carcinoma) cell viability (% of control)",[12]; 3.7 nM,47.2 ± 5.8 % of control
same,"SCC-25 (tongue, squamous cell carcinoma) cell viability (% of control)",[12]; 11.1 nM,34.3 ± 2.0 % of control
same,"SCC-25 (tongue, squamous cell carcinoma) cell viability (% of control)",[12]; 100 nM,37.5 ± 1.4 % of control
same,"SCC-25 (tongue, squamous cell carcinoma) cell viability (% of control)",[12]; 300 nM,42.3 ± 5.2 % of control
